The values below come from PubChem BioAssay AID2008 (University of Pittsburgh Molecular Library Screening Center, 2009).

Active and inactive are the calls of the source. No rule for the calls is given here.

In the assay the test system is Leishmania major promastigote growth inhibition. In words: antileishmanial activity against L. major promastigotes – EC50, dose response (AID 2008).
Consider `Cc1ccc(S(=O)(=O)c2ccc(Oc3cccc(C)c3)cc2)cc1`, for which the EC50 was 178 nM. As for `Clc1ccc2[nH]cc(-c3nnnn3-c3ccc4ccccc4c3)c2c1`, the EC50 is 1540 nM. To `CC(C)(C)c1ccc(-c2ncccc2O)cc1` belongs 299 nM; to `CCCCCCCCCCCCCCCC[n+]1cccc(C(=O)N(CC)CC)c1`, 625 nM; to `N#CC(c1ccc(Cl)cc1)c1ccc2c(C(F)(F)F)cc(C(F)(F)F)nc2n1` (stereo not drawn), 564 nM. The result for `O=[N+]([O-])c1cc(-c2nnc(C34CC5CC(CC(C5)C3)C4)o2)cc([N+](=O)[O-])c1` reads 115 nM; that for `CCCc1nc2c(=O)n(C)c(=O)nc-2n(C)n1`, 214 nM; that for `Cn1c(=O)c2nc(-c3ccccc3)oc2c2ccccc21`, 1870 nM. To `CCn1nc(/C=C/c2ccccc2)nc2c(=O)n(C)c(=O)nc1-2` belongs > 5000 nM (inactive). `O=C1C2CCN(CC2)C1Cc1ccc(OCCOc2ccccc2)cc1` (stereo not drawn): the EC50 was 272 nM. In the case of `N=c1c2c(n(Cc3ccccc3)c3c1CCC3)CCC2`, the EC50 is 83.4 nM.

`Cc1cc(/C=C2\Sc3ccccc3N2C)cc(C)[n+]1CC1CCCO1` (stereo not drawn): the EC50 was 1 nM. Regarding `COc1ccc(C2=NCC(CSc3nnc(-c4ccc5c(c4)OCO5)o3)S2)cc1` (stereo not drawn), the EC50 is 187 nM. To `O=c1c(Cl)nc2cc(Cl)ccc2n1CCNc1ncc(C(F)(F)F)cc1Cl` belongs 512 nM; to `N#Cc1cc(Oc2ccc3ccccc3c2)c(-n2nnc3ccccc32)cc1C#N`, > 5000 nM (inactive).

As for `Cc1c(Cl)sn(-c2ccc(Cl)cc2)c1=O`, the EC50 is 545 nM.

Regarding `COc1ccc(C(=O)C(CN2CCOCC2)c2ccccc2)cc1F` (stereo not drawn), the EC50 was 2040 nM. To `CC(C)CCN(C)C1CCN(S(=O)(=O)c2cccc(C(F)(F)F)c2)CC1` belongs 9.17 nM.

As for `Cc1ccc(OCCCCn2ccnc2)c(Cl)c1`, the EC50 was 131 nM. The result for `Cc1nn(-c2ccccn2)c2c1C(=O)C(Br)CC2` (stereo not drawn) reads 967 nM; that for `CC(C)(C)c1ccc(-n2nc(C#N)c(Cl)cc2=O)cc1`, 759 nM; that for `O=C(NCC(c1cccnc1)N1CCN(c2ccc(F)cc2)CC1)Oc1ccccc1` (stereo not drawn), 111 nM. To `COC(=O)C1CN(C#N)N(c2ccc(Cl)cc2)C12c1ccccc1-c1ccccc12` (stereo not drawn) belongs 72.9 nM; to `CCCc1n[nH]c2c1/C(=N/O)CC(c1ccccc1)C2` (stereo not drawn), 1500 nM; to `COc1cccc2c(=O)c(C/C=C(/C)Cl)c(C)[nH]c12`, 107 nM. On to `CCC(C)(c1nnnn1-c1c(C)cccc1C)N(N=O)c1ccccc1Cl` (stereo not drawn), for which the EC50 is 324 nM. Consider `NC(=O)c1cn(C2OC(CO)C(O)C2O)c2ncnc(N)c12` (stereo not drawn), for which the EC50 is 164 nM. The result for `COc1ccc(S(=O)(=O)Nc2ccc(O)c3ccccc23)cc1` reads 268 nM. To `O=[N+]([O-])c1ccc(NNC(=S)Nc2ccc(F)cc2)cc1` belongs 449 nM; to `CCOC(=O)c1c(-c2ccc(F)cc2)csc1NC(=O)CCN1CCOCC1`, 176 nM. To `O=C(c1ccccc1)c1c2c(cc3sc4ccccc4[n+]13)-c1cccc3cccc-2c13` belongs 504 nM; to `CCOC(=O)c1c2c(n(C)c1C)C(=O)C(=O)c1ccc(Br)cc1-2`, 85.7 nM; to `Cc1ccc2c(c1)c(=O)c1c3n2CCN(C(=O)CCl)C3CC1` (stereo not drawn), 1970 nM.

On to `CCCCS(=O)(=O)/C=C\C=C/S(=O)(=O)CCCC`, for which the EC50 is 1520 nM. To `CCCCCCCCCCCCCCCCn1cc[n+](C)c1` belongs 35 nM; to `O=C1C(=O)c2c(C(=O)c3ccccc3)coc2-c2ccccc21`, 1250 nM. To `CC(=O)O[C@@H]1C[C@H]2C(C)(C)C(=O)C=C[C@]2(C)[C@H]2CC[C@@]3(C)[C@H](c4ccoc4)OC(=O)[C@H]4O[C@]43[C@@]21C` belongs 731 nM. With `N=C(N)SCc1cn(-c2ccccc2)nc1-c1ccc(Br)cc1`, the EC50 was 1300 nM. The result for `Cn1nc(-c2ccc(Cl)cc2)nc2c(=O)n(C)c(=O)nc1-2` reads > 5000 nM (inactive). Consider `CNc1ccccc1C(C)(C)c1cc(-c2cccc(Br)c2)no1`, for which the EC50 was 2780 nM. To `COc1ccc(/C=C/c2cc[n+](C(=O)Cc3ccccc3)cc2)cc1` belongs 49.6 nM; to `Nc1nsc2ccccc12`, 391 nM.

With `O=[N+]([O-])c1cc([N+](=O)[O-])c2n[nH]c(-c3ccccc3)c2c1`, the EC50 was 402 nM. The result for `CC[n+]1c(/C=C/N(C)c2ccccc2)sc2ccc(Cl)cc21` reads 172 nM. The result for `Cc1ccc2nc(Cl)c3nnnn3c2c1` reads 765 nM; that for `CC1=C(C(=O)Nc2cc(-c3cccc(F)c3)[nH]n2)C2(CCCCC2)OC1=O`, 379 nM. To `C=CCc1ccc(OCCCCCN2CCOCC2)c(OC)c1` belongs 970 nM; to `CC1(C)Cc2ccccc2-c2nnc(-c3ccc4ccccc4n3)n21`, 1020 nM. On to `CCOCCN1CCN(c2nnc3n2-c2ccc(Cl)cc2C(c2ccccc2Cl)=NC3)CC1`, for which the EC50 was 1170 nM.

With `[O-][N+]1=c2ccc(Nc3ccccc3)cc2=NC12CCCCC2`, the EC50 was 840 nM. To `COCCCNCCCCOc1ccc(Br)cc1Cl` belongs 1.73 nM; to `CCN(CC)C(=S)SSC(=S)N(CC)CC`, 263 nM; to `COc1cc(-c2c(C#N)c(N)nc(SCc3ccncc3)c2C#N)cc(OC)c1OC`, 1020 nM. To `COc1ccccc1-n1cnc2c(c1=O)c1nc3ccccc3nc1n2-c1ccc(C)c(C)c1` belongs 81.8 nM. The result for `CN(C)CCOc1ccccc1Cc1ccccc1` reads 498 nM. As to `CCOC(=O)c1nnn(-c2nonc2-n2cccc2)c1CCl`, the EC50 was 1860 nM. To `O=C(/C=C/c1ccccc1)CC(O)(c1ccccc1)C(F)(F)F` (stereo not drawn) belongs 1240 nM. The result for `O=C(O)CCC(=O)Nc1ccc(N2CCCCCC2)cc1` reads 1740 nM.

For the molecule `NC(C(=O)O)C1CC(Cl)=NO1` (stereo not drawn), the concentration for a half-maximal effect (EC50) was 177 nM. The result for `Nc1cccc2nc3ccccc3cc12` reads 635 nM; that for `CCCOC(=O)CSC1=C(C#N)C(c2ccccc2Cl)CC(=O)N1` (stereo not drawn), 122 nM; that for `COc1ccc(Cn2c(-c3ccc(OC)cc3)nc3ccccc32)cc1`, 1110 nM. The result for `CCC(/C=C1\Sc2ccc(OC)cc2N1CCO)=C\c1sc2ccc(OC)cc2[n+]1CCO` reads 487 nM; that for `Cc1ccccc1NC1=C/C(=N\S(=O)(=O)c2cccs2)c2ccccc2C1=O`, 208 nM; that for `Cc1nc2c(=O)n(C)c(=O)nc-2n(C)n1`, 201 nM. To `Clc1ccccc1C(c1ccccc1)(c1ccccc1)n1ccnc1` belongs 145 nM. For the molecule `COC(=O)c1cccc(Cn2c(Cl)c(/C=N/Nc3ccccc3C)sc2=O)c1`, the 50% effective concentration (EC50) is 528 nM.

`CSc1ccc(CNC2CN3CCC2CC3)cc1` (stereo not drawn): the EC50 was 1140 nM. `Cc1cc(C)nc(/N=c2/ssnc2Cl)c1`: the EC50 was 353 nM. To `C[n+]1c(-c2ccccc2)cc(CCCCc2cc(-c3ccccc3)[n+](C)c(-c3ccccc3)c2)cc1-c1ccccc1` belongs 702 nM; to `Cc1nc([N+](=O)[O-])nn1C12CC3CC(CC(Cl)(C3)C1)C2`, 856 nM; to `Cc1ccc(NC(=O)N2CCCN(Cc3ccc(F)cc3)C2)cc1C`, 2940 nM. With `Cc1ccccc1-n1ncc2c([N+](=O)[O-])cc([N+](=O)[O-])cc21`, the half-maximal effective concentration (EC50) was 60.9 nM.
